Experimental data as given in ChEMBL document CHEMBL5465560, “Selectivity Literature for EUbOPEN Chemogenomic Library” (2024).

How the values were obtained:
[1] = biological target: T1, Peripheral plasma membrane protein CASK (Homo sapiens) (UniProt O14936); test: Selectivity interaction (KinomeScan (DiscoverX)) EUB0001079a CASK; settings: at 1 µM
T1 sequence (whole entry): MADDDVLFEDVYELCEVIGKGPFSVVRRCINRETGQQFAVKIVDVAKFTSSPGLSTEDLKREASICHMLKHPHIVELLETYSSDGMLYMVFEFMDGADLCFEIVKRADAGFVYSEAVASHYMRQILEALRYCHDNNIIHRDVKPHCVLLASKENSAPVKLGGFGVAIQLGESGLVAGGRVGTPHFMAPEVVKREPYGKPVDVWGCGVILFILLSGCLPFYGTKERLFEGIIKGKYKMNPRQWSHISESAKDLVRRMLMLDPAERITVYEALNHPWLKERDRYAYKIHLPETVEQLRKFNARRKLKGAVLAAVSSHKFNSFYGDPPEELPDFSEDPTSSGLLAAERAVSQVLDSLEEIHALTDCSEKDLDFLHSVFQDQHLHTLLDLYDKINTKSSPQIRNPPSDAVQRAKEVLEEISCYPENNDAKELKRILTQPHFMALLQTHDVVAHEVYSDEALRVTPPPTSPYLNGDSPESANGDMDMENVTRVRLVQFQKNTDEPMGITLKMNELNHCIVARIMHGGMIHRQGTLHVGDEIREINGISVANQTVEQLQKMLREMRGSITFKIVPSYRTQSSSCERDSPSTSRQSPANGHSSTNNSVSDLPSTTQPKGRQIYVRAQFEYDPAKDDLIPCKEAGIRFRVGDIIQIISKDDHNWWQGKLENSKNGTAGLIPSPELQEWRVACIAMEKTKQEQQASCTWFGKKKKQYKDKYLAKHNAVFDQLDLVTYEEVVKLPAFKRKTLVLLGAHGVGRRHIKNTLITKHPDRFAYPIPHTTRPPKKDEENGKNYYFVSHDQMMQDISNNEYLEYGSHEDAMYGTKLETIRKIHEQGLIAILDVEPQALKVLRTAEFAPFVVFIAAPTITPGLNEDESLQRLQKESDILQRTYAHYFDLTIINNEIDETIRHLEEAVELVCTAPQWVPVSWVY

[2] = biological target: T2, Dual serine/threonine and tyrosine protein kinase (Homo sapiens) (UniProt Q6XUX3); test: Selectivity interaction (KinomeScan (DiscoverX)) EUB0001079a DSTYK; settings: at 1 µM
T2 sequence (whole entry): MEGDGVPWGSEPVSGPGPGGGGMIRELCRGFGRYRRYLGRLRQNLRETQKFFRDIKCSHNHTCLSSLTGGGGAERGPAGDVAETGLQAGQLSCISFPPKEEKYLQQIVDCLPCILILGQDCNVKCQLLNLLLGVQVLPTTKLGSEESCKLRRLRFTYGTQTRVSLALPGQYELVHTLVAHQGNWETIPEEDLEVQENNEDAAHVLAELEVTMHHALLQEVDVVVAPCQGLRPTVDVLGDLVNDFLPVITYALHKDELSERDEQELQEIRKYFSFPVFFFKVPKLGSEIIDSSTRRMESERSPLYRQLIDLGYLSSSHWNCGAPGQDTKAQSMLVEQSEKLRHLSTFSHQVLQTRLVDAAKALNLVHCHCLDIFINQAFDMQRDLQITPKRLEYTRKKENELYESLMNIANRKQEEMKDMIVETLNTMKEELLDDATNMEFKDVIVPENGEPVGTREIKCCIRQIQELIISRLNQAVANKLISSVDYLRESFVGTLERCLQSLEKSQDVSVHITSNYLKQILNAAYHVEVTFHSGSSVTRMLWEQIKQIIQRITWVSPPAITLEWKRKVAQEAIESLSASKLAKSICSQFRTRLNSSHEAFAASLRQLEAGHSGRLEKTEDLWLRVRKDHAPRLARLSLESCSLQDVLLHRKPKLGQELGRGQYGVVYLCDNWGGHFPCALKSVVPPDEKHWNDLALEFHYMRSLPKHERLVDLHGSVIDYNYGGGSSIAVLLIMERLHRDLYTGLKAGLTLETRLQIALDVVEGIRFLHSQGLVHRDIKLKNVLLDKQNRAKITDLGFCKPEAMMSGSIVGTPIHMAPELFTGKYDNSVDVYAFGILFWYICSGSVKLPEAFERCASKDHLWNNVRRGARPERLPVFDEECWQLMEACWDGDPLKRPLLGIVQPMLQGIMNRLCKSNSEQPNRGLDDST

[3] = biological target: Cyclin-dependent kinase-like 1 (Homo sapiens) (UniProt Q00532); settings: at 10 µM
Cyclin-dependent kinase-like 1 (Homo sapiens), sequence (Q00532 whole entry): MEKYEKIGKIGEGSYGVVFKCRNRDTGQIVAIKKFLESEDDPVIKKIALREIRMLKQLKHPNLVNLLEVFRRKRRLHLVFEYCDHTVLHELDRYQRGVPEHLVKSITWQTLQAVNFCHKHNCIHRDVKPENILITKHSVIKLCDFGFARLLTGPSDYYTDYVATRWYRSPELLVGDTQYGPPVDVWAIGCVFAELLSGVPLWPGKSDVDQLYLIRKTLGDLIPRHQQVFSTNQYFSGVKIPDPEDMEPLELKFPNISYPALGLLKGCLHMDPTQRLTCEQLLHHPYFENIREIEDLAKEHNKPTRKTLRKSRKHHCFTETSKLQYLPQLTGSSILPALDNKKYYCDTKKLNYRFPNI

[4] = biological target: T3, Interleukin-1 receptor-associated kinase 4 (Homo sapiens) (UniProt Q9NWZ3); settings: at 10 µM
T3 sequence (whole entry): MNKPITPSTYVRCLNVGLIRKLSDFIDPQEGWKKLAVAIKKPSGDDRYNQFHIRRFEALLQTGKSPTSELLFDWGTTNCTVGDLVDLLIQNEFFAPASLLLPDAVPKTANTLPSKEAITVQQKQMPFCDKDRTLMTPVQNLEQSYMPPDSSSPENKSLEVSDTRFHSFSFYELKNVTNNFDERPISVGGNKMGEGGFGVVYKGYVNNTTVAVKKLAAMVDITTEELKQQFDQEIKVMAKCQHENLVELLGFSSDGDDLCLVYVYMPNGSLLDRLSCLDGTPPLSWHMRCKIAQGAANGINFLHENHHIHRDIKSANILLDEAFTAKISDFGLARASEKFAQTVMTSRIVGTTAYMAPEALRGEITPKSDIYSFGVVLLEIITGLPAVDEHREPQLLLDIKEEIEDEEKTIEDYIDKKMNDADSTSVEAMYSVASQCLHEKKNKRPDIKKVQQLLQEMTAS

[5] = biological target: Tyrosine-protein kinase Lyn (Homo sapiens, UniProt P07948); test: Selectivity interaction (ActivX KiNativ screen (ex vivo kinase selectivity in human PBMCs)) EUB0001619a LYN; assay type: cell-based; settings: PBMC, at 1 µM
Tyrosine-protein kinase Lyn, sequence (P07948 2-512 limits assumed): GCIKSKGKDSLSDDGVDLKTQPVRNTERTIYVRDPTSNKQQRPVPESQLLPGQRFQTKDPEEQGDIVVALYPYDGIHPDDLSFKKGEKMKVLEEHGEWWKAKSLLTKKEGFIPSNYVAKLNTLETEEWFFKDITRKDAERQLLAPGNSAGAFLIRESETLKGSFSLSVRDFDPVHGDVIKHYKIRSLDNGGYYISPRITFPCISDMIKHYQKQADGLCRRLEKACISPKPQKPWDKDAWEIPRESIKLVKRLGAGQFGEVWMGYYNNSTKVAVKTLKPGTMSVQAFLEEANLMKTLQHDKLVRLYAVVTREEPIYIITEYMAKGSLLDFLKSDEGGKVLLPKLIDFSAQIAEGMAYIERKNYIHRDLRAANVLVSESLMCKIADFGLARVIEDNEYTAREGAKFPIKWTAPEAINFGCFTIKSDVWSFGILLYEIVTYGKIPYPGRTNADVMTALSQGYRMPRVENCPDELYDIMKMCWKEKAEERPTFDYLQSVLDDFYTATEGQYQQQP

[6] = biological target: Activated CDC42 kinase 1 (Homo sapiens, UniProt Q07912); test: Selectivity interaction (KinomeScan (DiscoverX)) EUB0000607a TNK2; settings: at 10 µM
Activated CDC42 kinase 1, sequence (Q07912 whole entry, looked up): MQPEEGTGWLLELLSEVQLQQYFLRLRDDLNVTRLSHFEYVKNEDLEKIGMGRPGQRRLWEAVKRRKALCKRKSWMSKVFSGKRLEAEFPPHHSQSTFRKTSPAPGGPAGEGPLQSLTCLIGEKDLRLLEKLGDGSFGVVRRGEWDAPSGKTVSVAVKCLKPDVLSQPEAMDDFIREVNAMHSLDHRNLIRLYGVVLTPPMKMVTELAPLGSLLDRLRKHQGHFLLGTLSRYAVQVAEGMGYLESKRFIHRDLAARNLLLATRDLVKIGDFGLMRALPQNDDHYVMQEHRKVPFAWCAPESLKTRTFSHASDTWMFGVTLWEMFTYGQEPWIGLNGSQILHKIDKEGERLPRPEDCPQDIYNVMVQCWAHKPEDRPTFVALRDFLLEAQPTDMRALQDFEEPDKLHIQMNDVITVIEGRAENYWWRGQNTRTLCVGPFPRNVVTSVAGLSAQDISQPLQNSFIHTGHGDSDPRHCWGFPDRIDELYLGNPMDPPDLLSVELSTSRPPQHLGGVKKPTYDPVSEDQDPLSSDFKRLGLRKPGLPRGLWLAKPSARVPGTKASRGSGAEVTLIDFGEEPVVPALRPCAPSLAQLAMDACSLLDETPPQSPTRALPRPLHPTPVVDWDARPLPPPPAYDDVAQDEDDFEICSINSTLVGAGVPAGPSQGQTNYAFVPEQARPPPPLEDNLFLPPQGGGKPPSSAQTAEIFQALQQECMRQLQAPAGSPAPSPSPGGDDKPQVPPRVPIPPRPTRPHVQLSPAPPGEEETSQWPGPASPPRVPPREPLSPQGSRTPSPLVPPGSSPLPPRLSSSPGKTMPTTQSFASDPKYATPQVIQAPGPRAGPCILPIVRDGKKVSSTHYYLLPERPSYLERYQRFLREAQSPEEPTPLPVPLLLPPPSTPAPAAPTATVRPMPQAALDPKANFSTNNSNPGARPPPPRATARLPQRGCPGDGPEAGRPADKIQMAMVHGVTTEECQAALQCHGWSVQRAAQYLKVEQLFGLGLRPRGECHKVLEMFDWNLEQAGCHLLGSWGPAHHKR

[7] = biological target: Cyclin-dependent kinase 11B (Homo sapiens) (UniProt P21127); test: Selectivity interaction (KinomeScan (DiscoverX)) EUB0000655a CDK11B; settings: at 10 µM
Cyclin-dependent kinase 11B (Homo sapiens), sequence (P21127 whole entry, the tested form may be a part): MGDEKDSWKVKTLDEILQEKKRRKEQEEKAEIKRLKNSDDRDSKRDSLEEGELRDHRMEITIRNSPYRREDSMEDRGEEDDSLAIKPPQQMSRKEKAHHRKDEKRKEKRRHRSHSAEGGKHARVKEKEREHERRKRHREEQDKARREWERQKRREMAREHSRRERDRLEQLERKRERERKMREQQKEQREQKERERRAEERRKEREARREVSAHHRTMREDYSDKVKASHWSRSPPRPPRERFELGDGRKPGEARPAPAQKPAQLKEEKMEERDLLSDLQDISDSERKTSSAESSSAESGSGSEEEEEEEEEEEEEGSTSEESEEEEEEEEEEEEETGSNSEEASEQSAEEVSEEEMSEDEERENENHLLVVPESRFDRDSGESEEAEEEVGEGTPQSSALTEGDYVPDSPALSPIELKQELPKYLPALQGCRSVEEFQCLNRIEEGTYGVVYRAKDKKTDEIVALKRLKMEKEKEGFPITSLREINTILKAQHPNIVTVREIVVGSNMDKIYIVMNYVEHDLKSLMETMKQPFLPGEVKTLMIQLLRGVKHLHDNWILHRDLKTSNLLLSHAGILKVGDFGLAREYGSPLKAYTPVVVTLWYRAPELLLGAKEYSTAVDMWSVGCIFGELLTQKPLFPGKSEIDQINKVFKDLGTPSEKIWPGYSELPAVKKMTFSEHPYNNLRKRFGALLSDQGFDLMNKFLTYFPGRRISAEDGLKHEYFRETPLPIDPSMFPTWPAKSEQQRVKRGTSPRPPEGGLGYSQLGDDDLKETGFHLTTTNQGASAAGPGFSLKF

[8] = biological target: Phosphatidylinositol 4-phosphate 3-kinase C2 domain-containing subunit beta (Homo sapiens) (UniProt O00750); test: Selectivity interaction (KinomeScan (DiscoverX)) EUB0000655a PIK3C2B; settings: at 10 µM
Phosphatidylinositol 4-phosphate 3-kinase C2 domain-containing subunit beta (Homo sapiens), sequence (O00750 whole entry, the tested form may be a part): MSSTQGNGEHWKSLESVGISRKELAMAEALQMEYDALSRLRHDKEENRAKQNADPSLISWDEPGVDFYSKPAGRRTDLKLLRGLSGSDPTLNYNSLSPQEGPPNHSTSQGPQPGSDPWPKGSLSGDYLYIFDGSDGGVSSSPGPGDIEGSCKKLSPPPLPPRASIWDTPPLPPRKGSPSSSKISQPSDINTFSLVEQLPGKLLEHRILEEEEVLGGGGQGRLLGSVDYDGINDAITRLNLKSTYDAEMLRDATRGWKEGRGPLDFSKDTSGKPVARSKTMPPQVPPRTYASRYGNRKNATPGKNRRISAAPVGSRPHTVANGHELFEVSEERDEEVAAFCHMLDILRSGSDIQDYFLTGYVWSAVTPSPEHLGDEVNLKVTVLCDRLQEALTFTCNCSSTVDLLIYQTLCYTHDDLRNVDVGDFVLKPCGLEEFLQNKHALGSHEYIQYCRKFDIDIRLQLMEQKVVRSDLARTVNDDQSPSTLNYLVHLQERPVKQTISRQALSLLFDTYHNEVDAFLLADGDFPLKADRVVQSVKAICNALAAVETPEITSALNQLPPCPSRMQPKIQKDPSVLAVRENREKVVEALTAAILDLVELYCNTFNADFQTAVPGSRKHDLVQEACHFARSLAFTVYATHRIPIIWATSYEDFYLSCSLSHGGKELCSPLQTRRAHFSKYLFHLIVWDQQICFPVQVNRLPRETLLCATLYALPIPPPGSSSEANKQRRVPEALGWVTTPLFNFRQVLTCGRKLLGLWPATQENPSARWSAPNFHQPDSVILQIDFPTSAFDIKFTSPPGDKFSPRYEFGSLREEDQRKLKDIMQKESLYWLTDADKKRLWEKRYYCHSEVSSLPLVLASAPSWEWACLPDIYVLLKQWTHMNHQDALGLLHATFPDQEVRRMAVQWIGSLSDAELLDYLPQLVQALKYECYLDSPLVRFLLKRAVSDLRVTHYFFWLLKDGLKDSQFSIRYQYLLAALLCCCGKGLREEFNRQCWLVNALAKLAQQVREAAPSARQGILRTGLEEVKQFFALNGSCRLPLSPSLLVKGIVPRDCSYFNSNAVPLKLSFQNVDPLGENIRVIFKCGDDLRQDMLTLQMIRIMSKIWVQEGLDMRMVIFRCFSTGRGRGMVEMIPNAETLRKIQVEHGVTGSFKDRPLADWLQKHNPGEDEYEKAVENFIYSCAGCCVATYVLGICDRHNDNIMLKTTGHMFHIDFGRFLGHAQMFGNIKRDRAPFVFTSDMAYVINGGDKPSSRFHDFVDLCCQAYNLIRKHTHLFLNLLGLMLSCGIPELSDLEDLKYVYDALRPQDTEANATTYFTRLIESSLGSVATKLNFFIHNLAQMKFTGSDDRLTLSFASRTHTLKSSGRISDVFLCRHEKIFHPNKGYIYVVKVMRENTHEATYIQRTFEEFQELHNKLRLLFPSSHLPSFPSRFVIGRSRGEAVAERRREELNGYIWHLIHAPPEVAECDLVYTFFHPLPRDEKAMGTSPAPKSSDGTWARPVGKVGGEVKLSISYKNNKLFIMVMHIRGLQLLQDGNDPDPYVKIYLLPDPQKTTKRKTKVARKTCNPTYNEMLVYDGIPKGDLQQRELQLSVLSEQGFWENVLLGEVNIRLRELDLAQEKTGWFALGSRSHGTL

For `Nc1cnc(N2CCc3cc(S(=O)(=O)Nc4c(F)cc(Cl)cc4F)cc(N4CCCC4=O)c32)nc1` [TP-020n], the % of control [1] was 94% and the % of control [2] was 100%.

With `Cc1cc([C@@H](C)Nc2ccccc2C(=O)O)c2nc(N3CCOCC3)cc(=O)n2c1` [AZD-6482] the % of control [3] was 100% and the % of control [4] was 100%.

Work on `N#Cc1cccc(-c2c[nH]c3ncnc(N4CCOCC4)c23)c1` yielded a % of inhibition [5] of 1%.

For `CNC(=O)Nc1ccc(-c2nc(N3CC4CCC(C3)O4)c3cnn(C4CCC5(CC4)OCCO5)c3n2)cc1`, the % of control [6] was 84%.

For `CN(C)CCOc1ccc(-c2nc(-c3ccncc3)c(-c3ccc4c(c3)CC/C4=N\O)[nH]2)cc1`, the % of control [7] was 100% and the % of control [8] was 64%.
